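Cultured in 96-well plates, cells were exposed to test compound for 48 hours across five concentrations. GI50 marks 50% less growth.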 The source made the active and inactive calls. Cut-off read from the data, not from the text of the source: active = GI50 up to about 1.1 µM and inactive = higher.
How the values were obtained:
Experiment in all cases: NCI anticancer screen, dose series, 48 h
DLD-1 = system: DLD-1
DMS-114 = system: DMS-114
DMS-273 = system: DMS-273
LXFL 529 = system: LXFL 529
M19-MEL = system: M19-MEL
SNB-78 = system: SNB-78
HOP-18 = system: HOP-18
RXF 631 = system: RXF 631
XF498 = system: XF498

| Compound | GI50 (DLD-1) | GI50 (DMS-114) | GI50 (DMS-273) | GI50 (LXFL 529) | GI50 (M19-MEL) | GI50 (SNB-78) | GI50 (HOP-18) | GI50 (RXF 631) | GI50 (XF498) |
| --- | --- | --- | --- | --- | --- | --- | --- | --- | --- |
| O=C(O)CSc1nnc(COc2ccccc2)n1-c1ccccc1 | > 100 µM (inactive) | > 100 µM (inactive) | > 100 µM (inactive) | > 100 µM (inactive) | > 100 µM (inactive) | > 100 µM (inactive) | – | – | – |
| C=C1C(=O)O[C@@H]2C[C@@H](C)[C@@H]3C=CC(=O)[C@@]3(C)[C@@H](OC(=O)CC(=O)O[C@H]3[C@@H]4C(=C)C(=O)O[C@@H]4C[C@@H](C)[C@@H]4C=CC(=O)[C@]43C)[C@H]12 | < 0.01 µM (active) | 0.0312 µM (active) | 0.0336 µM (active) | < 0.0117 µM (active) | 0.0141 µM (active) | 0.0153 µM (active) | 0.11 µM (active) | 0.0989 µM (active) | 0.0213 µM (active) |
| Cc1ccc(NC(=O)CC2SC(=N)NC2=O)cc1C (stereo not given) | > 100 µM (inactive) | – | – | > 100 µM (inactive) | – | > 100 µM (inactive) | – | > 100 µM (inactive) | > 100 µM (inactive) |
| COc1ccc2[nH]c3c(c2c1)[C@H](c1ccccc1)C[C@@H]1C(=O)N(c2ccccc2)C(=O)[C@H]31 | 59.7 µM (inactive) | 29.1 µM (inactive) | 47.8 µM (inactive) | 43.2 µM (inactive) | > 100 µM (inactive) | 44.5 µM (inactive) | 2.54 µM (inactive) | 45.1 µM (inactive) | 23 µM (inactive) |
| CCOC(=O)c1oc2ccc([N+](=O)[O-])c3c2c1CCC3 | > 100 µM (inactive) | 36.9 µM (inactive) | 58.3 µM (inactive) | > 100 µM (inactive) | > 100 µM (inactive) | 34.8 µM (inactive) | 6.55 µM (inactive) | 37.2 µM (inactive) | 20.7 µM (inactive) |
| O=C(CO[N+](=O)[O-])OC/C=C/c1ccccc1 | > 100 µM (inactive) | > 100 µM (inactive) | > 100 µM (inactive) | > 100 µM (inactive) | > 100 µM (inactive) | – | – | – | – |
| CN(C)/C=N/c1nc2ncn(CCOC(=O)c3ccccc3)c2c(=O)[nH]1 | > 100 µM (inactive) | > 100 µM (inactive) | > 100 µM (inactive) | > 100 µM (inactive) | > 100 µM (inactive) | > 100 µM (inactive) | > 100 µM (inactive) | > 100 µM (inactive) | – |
| Brc1ccc(N2C[N+](c3ccc(Br)cc3)=NC(c3ccccc3)=N2)cc1 | 12.6 µM (inactive) | 19.5 µM (inactive) | 8.65 µM (inactive) | 11.1 µM (inactive) | 14.3 µM (inactive) | 31.2 µM (inactive) | 14.8 µM (inactive) | – | 20.6 µM (inactive) |
| COc1ccc(C2c3cc(OC)c(OC)cc3C(Cc3ccc([N+](=O)[O-])cc3)C2c2ccc([N+](=O)[O-])cc2)cc1OC (stereo not given) | > 100 µM (inactive) | > 100 µM (inactive) | > 100 µM (inactive) | > 100 µM (inactive) | > 100 µM (inactive) | > 100 µM (inactive) | – | > 100 µM (inactive) | 48.9 µM (inactive) |
| N#CC(C#N)=c1[nH]c2cccc3c2-c2c(cccc2c3=C(C#N)C#N)[nH]1 | > 100 µM (inactive) | > 100 µM (inactive) | > 100 µM (inactive) | > 100 µM (inactive) | – | 57.4 µM (inactive) | > 100 µM (inactive) | – | > 100 µM (inactive) |
| Cc1nnc(N/N=C2/C(=O)Nc3c(Cl)cc(Cl)cc32)n1N | > 100 µM (inactive) | – | – | > 100 µM (inactive) | > 100 µM (inactive) | > 100 µM (inactive) | 73.1 µM (inactive) | – | – |
| CN1Cc2c(nc(-c3ccc(Br)cc3)c[n+]2[O-])N(C)C1 | > 100 µM (inactive) | > 100 µM (inactive) | > 100 µM (inactive) | > 100 µM (inactive) | – | > 100 µM (inactive) | > 100 µM (inactive) | – | > 100 µM (inactive) |
| COC(CN1C(=O)c2cccc3cccc(c23)C1=O)OC | > 100 µM (inactive) | 78 µM (inactive) | 48.9 µM (inactive) | 62.7 µM (inactive) | > 100 µM (inactive) | > 100 µM (inactive) | > 100 µM (inactive) | – | 23.1 µM (inactive) |
| COc1ccc2[nH]c3c(C)cc([N+](=O)[O-])c(C)c3c2c1 | 26.6 µM (inactive) | 23.3 µM (inactive) | 13.6 µM (inactive) | 25.5 µM (inactive) | 21.9 µM (inactive) | – | 26.1 µM (inactive) | – | 34.2 µM (inactive) |
| O=C(c1ccc(Cl)cc1Cl)C1[C@H]2C(=O)N(c3ccc(Cc4ccc(N5C(=O)[C@@H]6ON(c7ccccc7)C(C(=O)c7ccc(Cl)cc7Cl)[C@@H]6C5=O)cc4)cc3)C(=O)[C@H]2ON1c1ccccc1 (stereo not given in full) | > 50 µM (inactive) | > 50 µM (inactive) | > 50 µM (inactive) | > 50 µM (inactive) | > 50 µM (inactive) | > 50 µM (inactive) | > 50 µM (inactive) | > 50 µM (inactive) | – |
| CC(=O)NC(C=O)C(O[C@H](C)C(=O)NC(C)C(=O)NC(CCC(N)=O)C(=O)OCc1ccccc1)C(O)C(O)COC(=O)CCNc1c2ccccc2nc2cccc([N+](=O)[O-])c12 (stereo not given in full) | 3.41 µM (inactive) | 2.81 µM (inactive) | 2.69 µM (inactive) | 1.79 µM (inactive) | 1.66 µM (inactive) | 2.58 µM (inactive) | 4.3 µM (inactive) | – | 1.83 µM (inactive) |
| COc1ccc(CCC2c3cc(OC)c(OC)cc3CCN2C)cc1OC (stereo not given) | > 100 µM (inactive) | > 100 µM (inactive) | – | > 100 µM (inactive) | > 100 µM (inactive) | > 100 µM (inactive) | > 100 µM (inactive) | – | – |
| CC1C=C(CCCCCCCCCCCC[C@@H](O)[C@@H]2CC[C@@H]([C@@H]3CC[C@@H](C(O)CCCCCCCCCCCCC4=C[C@H](C)OC4=O)O3)O2)C(=O)O1 (stereo not given in full) | > 100 µM (inactive) | 0.0697 µM (active) | > 41 µM (inactive) | 17.1 µM (inactive) | 31.2 µM (inactive) | – | > 100 µM (inactive) | – | 17.9 µM (inactive) |
| COC(=O)CC1C[C@H](C#N)N(C(=O)c2ccccc2)C[C@@H]1CC[N+](=O)[O-] (stereo not given in full) | > 100 µM (inactive) | – | > 100 µM (inactive) | > 100 µM (inactive) | > 100 µM (inactive) | > 100 µM (inactive) | > 100 µM (inactive) | – | > 100 µM (inactive) |
| CC1CC[C@@]23CCC4(C)[C@@](C=CC5[C@@]6(C)CCC(=O)C(C)(C)C6CC[C@]54C)(OC2=O)[C@@H]3[C@H]1C (stereo not given in full) | 19.3 µM (inactive) | 6.46 µM (inactive) | – | 9.89 µM (inactive) | 17.9 µM (inactive) | 20 µM (inactive) | – | 21.1 µM (inactive) | 15.3 µM (inactive) |
| COc1cccc(/C=C/c2cc(OC)c(OC)c(OC)c2)c1 | 18.3 µM (inactive) | 24.9 µM (inactive) | 27.8 µM (inactive) | 61.7 µM (inactive) | 70.1 µM (inactive) | 21.8 µM (inactive) | – | 23.7 µM (inactive) | 33.7 µM (inactive) |
| Sc1ncnc2nc[nH]c12 [MERCAPTOPURINE ANHYDROUS] | 2.08 µM (inactive) | 1.67 µM (inactive) | 0.426 µM (active) | 653 µM (inactive) | 69 µM (inactive) | 90.4 µM (inactive) | 192 µM (inactive) | – | 5.04 µM (inactive) |
| COCC(O)Cn1ccnc1[N+](=O)[O-] (stereo not given) [MISONIDAZOLE] | – | > 100 µM (inactive) | > 100 µM (inactive) | – | > 100 µM (inactive) | > 100 µM (inactive) | – | – | > 100 µM (inactive) |
